The first assay has as its system Rattus norvegicus. The experiment in a line: Prevention of attention deficit/hyperactivity in po dosed spontaneously hypertensive stroke-prone rat assessed as prolongation of cumulative entry latency administered for 30 mins by passive avoidance response test. Format: functional. Conditions: 0.5 h, read-out: MED.
In the case of `Fc1ccc(Nc2nc(NCc3ncccn3)nc(Nc3ccc(F)cc3)n2)cc1`, the minimal effective dose was 0.03 mg/kg.

In the case of `Cl.Nc1nc(Nc2ccc(F)cc2)nc(N(Cc2ccnc(F)c2)c2ccccc2)n1`, the minimal effective dose was found to be 3 mg/kg. Same read-out and setting: then `COc1ccc(Nc2nc(NCc3ncccn3)nc(Nc3ccc(F)cc3)n2)cc1`, with 0.3 mg/kg; and `Fc1ccc(Nc2nc(NCc3ccncn3)nc(Nc3ccc(F)cc3)n2)cc1`, with 0.03 mg/kg; and `Fc1ccc(Nc2nc(NCc3ncccn3)nc(Nc3ccccc3)n2)cc1`, with 0.1 mg/kg.

The test system of the next assay is Rattus norvegicus. The experiment in a line: Prevention of attention deficit/hyperactivity in sc dosed spontaneously hypertensive stroke-prone rat assessed as prolongation of cumulative entry latency administered for 30 mins by passive avoidance response test. Format: functional. Conditions: 0.5 h, read-out: MED.
As to `COC(=O)C(c1ccccc1)C1CCCCN1` (stereo unspecified) [METHYLPHENIDATE], the minimal effective dose was found to be 0.1 mg/kg.
